Source: US11566030B2, “Substituted 2,6-dihydropyrrolo[3,4-c]pyrazoles as pyruvate kinase activators” (priority 2021, dated 2023)
Read-outs that look alike come from different tables or passages of the source.

Molecular target: T1, Human pyruvate kinase R (PKR) (Homo sapiens, UniProt P30613)
T1 construct: Human pyruvate kinase R (PKR), residues 14-574; 6xHis-8xArg-SUMO (N, cleaved yes); host or cells: E. coli
Assay: Biochemical assay for activation of pyruvate kinase R (Kinase-Glo luminescence, ATP generation)
Settings: for Emax: read-out: PKR % activation, maximal activation level achieved with each compound relative to the activation level achieved by AG-348 @ 10 μM
Method in brief: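 Recombinant human PKR (residues 14-574) expressed in E. coli with His-Arg-SUMO tag, tag cleaved, purified by Ni-NTA, anion exchange and size exclusion. Activation read as ATP generation by Kinase-Glo luminescence.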

[1] = PKR AC50 (nM), 0.1 nM PKR, 0.3 mM ADP, 0.1 mM PEP, 1% DMSO

T1 sequence (P30613 14-574): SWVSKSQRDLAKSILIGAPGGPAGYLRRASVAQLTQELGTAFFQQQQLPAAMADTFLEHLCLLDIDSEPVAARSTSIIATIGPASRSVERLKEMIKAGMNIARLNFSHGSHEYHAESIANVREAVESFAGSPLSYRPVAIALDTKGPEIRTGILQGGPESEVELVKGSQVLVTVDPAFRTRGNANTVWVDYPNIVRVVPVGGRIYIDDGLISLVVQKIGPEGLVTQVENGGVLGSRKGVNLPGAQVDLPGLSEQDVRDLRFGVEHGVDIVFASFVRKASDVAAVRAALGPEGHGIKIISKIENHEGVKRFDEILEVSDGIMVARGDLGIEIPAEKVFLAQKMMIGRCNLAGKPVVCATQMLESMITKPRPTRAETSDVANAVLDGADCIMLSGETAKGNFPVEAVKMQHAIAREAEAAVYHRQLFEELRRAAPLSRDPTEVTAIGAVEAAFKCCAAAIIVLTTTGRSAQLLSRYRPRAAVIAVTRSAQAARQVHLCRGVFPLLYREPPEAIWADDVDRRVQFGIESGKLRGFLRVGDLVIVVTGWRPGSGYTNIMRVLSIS

SMILES | AC50 [nM] | Emax [%] | AC50 [1] [nM]
O=C([C@H](CO)c1ccccc1Cl)N1Cc2cn(S(=O)(=O)c3cnn(CC(F)(F)F)c3)nc2C1 [Compound 47, (2S)-2-(2-chlorophenyl)-3-hydroxy-1-[2-[1-(2,2,2-trifluoroethyl)pyrazol-4-ylsulfonyl]-4H,6H-pyrrolo[3,4-c]pyrazol-5-yl]propan-1-one] | – | 108 | 10
Cc1cn(CC(F)(F)F)nc1S(=O)(=O)n1cc2c(n1)CN(C(=O)[C@@H](CO)c1ccccc1)C2 [Compound 67, (2R)-3-hydroxy-1-{2-[4-methyl-1-(2,2,2-trifluoroethyl)pyrazol-3-ylsulfonyl]-4H,6H-pyrrolo[3,4-c]pyrazol-5-yl}-2-phenylpropan-1-one] | – | 0 | –
O=C([C@@H](O)c1ncccc1F)N1Cc2cn(S(=O)(=O)c3ccn(CC(F)F)n3)nc2C1 (single isomer, unassigned) [Compound 29] | – | 86 | 420
Cc1c(S(=O)(=O)n2cc3c(n2)CN(C(=O)[C@@H](CO)c2ccccc2F)C3)cnn1CCF [Compound 97, (2R)-1-{2-[1-(2-fluoroethyl)-5-methylpyrazol-4-ylsulfonyl]-4H,6H-pyrrolo[3,4-c]pyrazol-5-yl}-2-(2-fluorophenyl)-3-hydroxypropan-1-one] | 550 | 102 | –
Cc1c(S(=O)(=O)n2cc3c(n2)CN(C(=O)[C@@H](CO)c2ccccc2)C3)cnn1CC(F)F [Compound 89, (R)-1-(2-((1-(2,2-difluoroethyl)-5-methyl-1H-pyrazol-4-yl)sulfonyl)-2,6-dihydropyrrolo[3,4-c]pyrazol-5(4H)-yl)-3-hydroxy-2-phenylpropan-1-one] | 1200 | 105 | –
Cc1c(S(=O)(=O)n2cc3c(n2)CN(C(=O)[C@H](CO)c2ccccc2Cl)C3)cnn1CCF [Compound 98, (2S)-2-(2-chlorophenyl)-1-{2-[1-(2-fluoroethyl)-5-methylpyrazol-4-ylsulfonyl]-4H,6H-pyrrolo[3,4-c]pyrazol-5-yl}-3-hydroxypropan-1-one] | – | 117 | 9.1
COc1nc(C)c(S(=O)(=O)n2cc3c(n2)CN(C(=O)[C@H](CO)c2ccccc2F)C3)s1 [Compound 23, (2S)-2-(2-fluorophenyl)-3-hydroxy-1-{2-[(2-methoxy-4-methyl-1,3-thiazol-5-yl)sulfonyl]-2H,4H,5H,6H-pyrrolo[3,4-c]pyrazol-5-yl}propan-1-one] | 8.6 | 30 | –

Results, then the molecule that gave them:

AC50 [nM] | Emax [%] | AC50 [1] [nM] | SMILES
170 | 122 | – | O=C([C@@H](CO)c1cccc(F)c1Cl)N1Cc2cn(S(=O)(=O)c3cnn(CC(F)F)c3)nc2C1 [Compound 56, (2R)-2-(2-chloro-3-fluorophenyl)-1-{2-[1-(2,2-difluoroethyl)pyrazol-4-ylsulfonyl]-4H,6H-pyrrolo[3,4-c]pyrazol-5-yl}-3-hydroxypropan-1-one]
– | 100 | 5.2 | O=C([C@H](CO)c1cccc(F)c1F)N1Cc2cn(S(=O)(=O)c3cnn(CC(F)F)c3)nc2C1 [Compound 53, (2S)-1-{2-[1-(2,2-difluoroethyl)pyrazol-4-ylsulfonyl]-4H,6H-pyrrolo[3,4-c]pyrazol-5-yl}-2-(2,3-difluorophenyl)-3-hydroxypropan-1-one]
– | 110 | 4.7 | O=C([C@H](CO)c1ccccc1F)N1Cc2cn(S(=O)(=O)c3cnn(CC(F)F)c3)nc2C1 [Compound 2, (2S)-1-(2-{[1-(2,2-difluoroethyl)-1H-pyrazol-4-yl]sulfonyl}-2H,4H,5H,6H-pyrrolo[3,4-c]pyrazol-5-yl)-2-(2-fluorophenyl)-3-hydroxypropan-1-one]
16 | 102 | – | COc1ccccc1[C@@H](CO)C(=O)N1Cc2cn(S(=O)(=O)c3cnn(CC(F)F)c3)nc2C1 [Compound 120, (2S)-1-{2-[1-(2,2-difluoroethyl)pyrazol-4-ylsulfonyl]-4H,6H-pyrrolo[3,4-c]pyrazol-5-yl}-3-hydroxy-2-(2-methoxyphenyl)propan-1-one]
